Test results from PubChem BioAssay AID248 (DTP/NCI, 2004).
Several values for one entry are separate records, joined by “and”; a condition that tells them apart may be missing. Equal entries are not always repeated. Inconclusive results and toxic doses are left out. Cut-off read from the data, not from the text of the source: active = T/C of 150% or more; inactive = T/C below 125%.

Tested on: L1210 leukemia ip in BDF1 mice, survival T/C
Assay: NCI In Vivo Anticancer Drug Screen. Data for tumor model L1210 Leukemia (intraperitoneal) in B6D2F1 (BDF1) mice
Settings: endpoint: mean survival time, higher = longer survival
In short: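 Each compound was tested against a transplantable tumor grown in mice. The endpoint was survival, with treated animals benchmarked against vehicle controls as a simple ratio.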

[1] = dose: 25.0 mg/kg/injection, schedule: Q01DX009 (ip), vehicle: saline
[2] = dose: 25.0 mg/kg/injection, schedule: Q04DX003 (ip), vehicle: saline
[3] = dose: 50.0 mg/kg/injection, schedule: Q01DX009 (ip), vehicle: saline
[4] = dose: 50.0 mg/kg/injection, schedule: Q04DX003 (ip), vehicle: saline
[5] = dose: 100.0 mg/kg/injection, schedule: Q01DX009 (ip), vehicle: saline
[6] = dose: 200.0 mg/kg/injection, schedule: Q01DX009 (ip), vehicle: saline
[7] = dose: 400.0 mg/kg/injection, schedule: Q01DX009 (ip), vehicle: saline
[8] = dose: 200.0 mg/kg/injection, schedule: Q04DX003 (ip), vehicle: saline with Tween-80
[9] = dose: 100.0 mg/kg/injection, schedule: Q01DX001 (ip), vehicle: carboxymethylcellulose (CMC)
[10] = dose: 100.0 mg/kg/injection, schedule: Q01DX009 (ip), vehicle: Klucel (hydroxypropylcellulose) (HPC)
[11] = dose: 100.0 mg/kg/injection, schedule: Q04DX003 (ip), vehicle: Klucel (hydroxypropylcellulose) (HPC)
[12] = dose: 200.0 mg/kg/injection, schedule: Q01DX001 (ip), vehicle: carboxymethylcellulose (CMC)
[13] = dose: 400.0 mg/kg/injection, schedule: Q01DX001 (ip), vehicle: carboxymethylcellulose (CMC)
[14] = dose: 100.0 mg/kg/injection, schedule: Q01DX001 (ip), vehicle: Klucel (hydroxypropylcellulose) (HPC)
[15] = dose: 200.0 mg/kg/injection, schedule: Q01DX001 (ip), vehicle: Klucel (hydroxypropylcellulose) (HPC)
[16] = dose: 200.0 mg/kg/injection, schedule: Q04DX003 (ip), vehicle: Klucel (hydroxypropylcellulose) (HPC)

Measured: T/C

O=S1(=O)C=C(Cl)C2C3C=CC(C3)C21 (stereo not given)
inactive: dose: 0.62 mg/kg/injection, schedule: Q01DX009 (ip), vehicle: acetone 101 % of control | dose: 1.25 mg/kg/injection, schedule: Q01DX009 (ip), vehicle: acetone 104 % of control | dose: 2.5 mg/kg/injection, schedule: Q04DX003 (ip), vehicle: acetone 90 % of control | dose: 5.0 mg/kg/injection, schedule: Q04DX003 (ip), vehicle: acetone 92 % of control | dose: 10.0 mg/kg/injection, schedule: Q01DX001 (ip), vehicle: acetone 97 % of control

CCN(CC)CCc1ccccn1
inactive: dose: 12.5 mg/kg/injection, schedule: Q01DX009 (ip), vehicle: saline 98 % of control | [1] 100 % of control | [2] 106 % of control | [3] 100 % of control | [4] 103 % of control

CCCC(C)OS(=O)(=O)c1ccc(C)cc1 (stereo not given)
inactive: [5] 104 % of control | dose: 100.0 mg/kg/injection, schedule: Q04DX002 (ip), vehicle: saline with Tween-80 97 % of control | [6] 96 % of control | dose: 200.0 mg/kg/injection, schedule: Q04DX002 (ip), vehicle: saline with Tween-80 93 % of control | [7] 102 % of control | dose: 400.0 mg/kg/injection, schedule: Q04DX002 (ip), vehicle: saline with Tween-80 97 % of control

CCCCCC(CN(C)C)C(O)/C=C/c1ccccc1Cl (stereo not given)
inactive: [1] 102 % of control | [2] 96 % of control | [3] 94 % of control | [4] 97 % of control | dose: 100.0 mg/kg/injection, schedule: Q04DX003 (ip), vehicle: saline 95 % of control and 88 % of control

CC1=NN(c2ccc([N+](=O)[O-])cc2)C(=O)C1[N+](=O)[O-] (stereo not given) (tested in a mixture with another compound)
inactive: dose: 75.0 mg/kg/injection, schedule: Q01DX001 (ip), vehicle: carboxymethylcellulose (CMC) 101 % of control | dose: 150.0 mg/kg/injection, schedule: Q01DX001 (ip), vehicle: carboxymethylcellulose (CMC) 95 % of control | dose: 300.0 mg/kg/injection, schedule: Q01DX001 (ip), vehicle: carboxymethylcellulose (CMC) 110 % of control

CCOC(=O)c1cnc(NN)nc1Nc1cc(Cl)cc(Cl)c1
inactive: [8] 90 % of control

c1cc[c]([Sn]([O][Sn]([c]2ccccc2)([c]2ccccc2)[c]2ccccc2)([c]2ccccc2)[c]2ccccc2)cc1
inactive: dose: 5.0 mg/kg/injection, schedule: Q01DX001 (ip), vehicle: saline 102 % of control | dose: 10.0 mg/kg/injection, schedule: Q01DX001 (ip), vehicle: saline 100 % of control | dose: 20.0 mg/kg/injection, schedule: Q01DX001 (ip), vehicle: saline 102 % of control | dose: 40.0 mg/kg/injection, schedule: Q01DX001 (ip), vehicle: saline 93 % of control

O=C1N(Cl)C(=O)C(c2ccc(Cl)cc2)(c2ccc(Cl)cc2)N1Cl
inactive: dose: 12.5 mg/kg/injection, schedule: Q01DX009 (ip), vehicle: saline with Tween-80 98 % of control | dose: 25.0 mg/kg/injection, schedule: Q01DX009 (ip), vehicle: Klucel (hydroxypropylcellulose) (HPC) 106 % of control | dose: 25.0 mg/kg/injection, schedule: Q01DX009 (ip), vehicle: saline with Tween-80 96 % of control | dose: 25.0 mg/kg/injection, schedule: Q04DX003 (ip), vehicle: Klucel (hydroxypropylcellulose) (HPC) 113 % of control | dose: 50.0 mg/kg/injection, schedule: Q01DX001 (ip), vehicle: carboxymethylcellulose (CMC) 101 % of control | dose: 50.0 mg/kg/injection, schedule: Q01DX009 (ip), vehicle: Klucel (hydroxypropylcellulose) (HPC) 106 % of control | dose: 50.0 mg/kg/injection, schedule: Q01DX009 (ip), vehicle: saline with Tween-80 102 % of control | dose: 50.0 mg/kg/injection, schedule: Q04DX003 (ip), vehicle: Klucel (hydroxypropylcellulose) (HPC) 106 % of control | [9] 108 % of control | [10] 98 % of control | dose: 100.0 mg/kg/injection, schedule: Q01DX009 (ip), vehicle: saline sonified 122 % of control | dose: 100.0 mg/kg/injection, schedule: Q01DX009 (ip), vehicle: saline with Tween-80 106 % of control | [11] 108 % of control | [12] 102 % of control | dose: 200.0 mg/kg/injection, schedule: Q01DX009 (ip), vehicle: saline sonified 93 % of control | dose: 200.0 mg/kg/injection, schedule: Q01DX009 (ip), vehicle: saline with Tween-80 106 % of control | [13] 103 % of control

CC1OC(=O)NC1C(=O)O (stereo not given)
inactive: dose: 100.0 mg/kg/injection, schedule: Q01DX001 (ip), vehicle: saline 120 % of control | [5] 91 % of control | dose: 100.0 mg/kg/injection, schedule: Q04DX003 (ip), vehicle: saline with Tween-80 106 % of control | dose: 200.0 mg/kg/injection, schedule: Q01DX001 (ip), vehicle: saline 98 % of control | [6] 101 % of control | [8] 103 % of control | dose: 400.0 mg/kg/injection, schedule: Q01DX001 (ip), vehicle: saline 101 % of control | [7] 89 % of control | dose: 400.0 mg/kg/injection, schedule: Q04DX003 (ip), vehicle: saline with Tween-80 95 % of control

Nc1ccccc1S(=O)(=O)F
inactive: dose: 75.0 mg/kg/injection, schedule: Q04DX003 (ip), vehicle: Klucel (hydroxypropylcellulose) (HPC) 100 % of control | [9] 98 % of control | dose: 150.0 mg/kg/injection, schedule: Q04DX003 (ip), vehicle: Klucel (hydroxypropylcellulose) (HPC) 94 % of control | [12] 98 % of control | dose: 300.0 mg/kg/injection, schedule: Q04DX003 (ip), vehicle: Klucel (hydroxypropylcellulose) (HPC) 96 % of control | [13] 101 % of control

O=[N+]([O-])c1ccc(-n2nccn2)cc1
inactive: dose: 75.0 mg/kg/injection, schedule: Q01DX001 (ip), vehicle: other 100 % of control | dose: 150.0 mg/kg/injection, schedule: Q01DX001 (ip), vehicle: other 107 % of control

CC(=O)OCC1OC(n2ncc3c(=O)[nH]cnc32)C(OC(C)=O)C1OC(C)=O (stereo not given)
inactive: dose: 12.5 mg/kg/injection, schedule: Q01DX005 (ip), vehicle: water 103 % of control | dose: 25.0 mg/kg/injection, schedule: Q01DX005 (ip), vehicle: water 104 % of control | dose: 50.0 mg/kg/injection, schedule: Q01DX005 (ip), vehicle: water 97 % of control | dose: 100.0 mg/kg/injection, schedule: Q01DX005 (ip), vehicle: water 98 % of control | dose: 200.0 mg/kg/injection, schedule: Q01DX005 (ip), vehicle: water 92 % of control

Cc1cc(=O)oc2cc(OC(=O)Nc3ccccc3)ccc12
inactive: [14] 93 % of control | [10] 94 % of control and 105 % of control | dose: 100.0 mg/kg/injection, schedule: Q04DX002 (ip), vehicle: Klucel (hydroxypropylcellulose) (HPC) 108 % of control and 118 % of control | [11] 105 % of control | [15] 104 % of control | dose: 200.0 mg/kg/injection, schedule: Q01DX009 (ip), vehicle: Klucel (hydroxypropylcellulose) (HPC) 98 % of control | dose: 200.0 mg/kg/injection, schedule: Q04DX002 (ip), vehicle: Klucel (hydroxypropylcellulose) (HPC) 112 % of control and 92 % of control | [16] 100 % of control | dose: 400.0 mg/kg/injection, schedule: Q01DX001 (ip), vehicle: Klucel (hydroxypropylcellulose) (HPC) 108 % of control | dose: 400.0 mg/kg/injection, schedule: Q04DX003 (ip), vehicle: Klucel (hydroxypropylcellulose) (HPC) 92 % of control

CCCCCCCCCCCSc1ccc2ccccc2c1
inactive: [14] 95 % of control | [15] 90 % of control

N#CSCSC#N
inactive: dose: 3.12 mg/kg/injection, schedule: Q04DX003 (ip), vehicle: saline with Tween-80 98 % of control | dose: 6.25 mg/kg/injection, schedule: Q04DX003 (ip), vehicle: saline with Tween-80 96 % of control | dose: 12.5 mg/kg/injection, schedule: Q04DX003 (ip), vehicle: saline with Tween-80 90 % of control

O=C(Sc1ccccc1)C1OC1(c1ccccc1)c1ccccc1 (stereo not given)
inactive: [11] 97 % of control | [16] 88 % of control
